Laboratory results as given in patent EP3981864A1, “DETERGENT COMPOSITION” (priority 2020, dated 2022).

Legend:
[1] = target: T1, Pisum sativum αDOX (SEQ ID NO: 4), fatty acid alpha-dioxygenase, Q5GQ66, N-terminal His-tag variant SEQ ID NO: 255 (Pisum sativum, UniProt Q5GQ66); assay: Alpha-dioxygenase activity assay (oxygen consumption, TON); type: biochemical; details: fatty acid 100 µM, enzyme 6 ppm, 50 mM HEPES pH 9.0, 37°C; initial rate of oxygen consumption / enzyme concentration
T1 construct: made in house; host or cells: Escherichia coli BL21 (DE3), pET30a
T1 sequence (Q5GQ66 1-643): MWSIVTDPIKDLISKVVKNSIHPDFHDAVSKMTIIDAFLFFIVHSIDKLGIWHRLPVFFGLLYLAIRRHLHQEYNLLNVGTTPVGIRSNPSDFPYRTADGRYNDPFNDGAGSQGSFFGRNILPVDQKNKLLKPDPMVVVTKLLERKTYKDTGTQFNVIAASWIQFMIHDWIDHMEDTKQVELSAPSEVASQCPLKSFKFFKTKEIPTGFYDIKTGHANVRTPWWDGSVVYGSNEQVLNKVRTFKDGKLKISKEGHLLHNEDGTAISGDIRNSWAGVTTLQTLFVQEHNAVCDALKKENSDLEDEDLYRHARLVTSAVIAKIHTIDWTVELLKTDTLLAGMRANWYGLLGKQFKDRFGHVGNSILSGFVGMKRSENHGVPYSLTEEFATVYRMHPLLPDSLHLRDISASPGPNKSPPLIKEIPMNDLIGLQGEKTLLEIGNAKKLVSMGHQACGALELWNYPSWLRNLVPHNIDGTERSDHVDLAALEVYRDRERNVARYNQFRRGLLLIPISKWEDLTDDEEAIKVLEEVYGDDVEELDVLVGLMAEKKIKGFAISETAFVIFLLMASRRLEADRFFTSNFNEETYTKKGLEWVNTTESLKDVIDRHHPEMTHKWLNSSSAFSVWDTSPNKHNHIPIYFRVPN
Source text: (§1) Pisum sativum αDOX (SEQ ID NO: 4) is a fatty acid alpha-dioxygenase that converts fatty acids into the corresponding 2-hydroperoxy fatty acids and is included as an example of the present invention. A codon optimized gene (SEQ ID NO: 254) encoding for an alpha-dioxygenase variant (SEQ ID NO: 255), including an N-terminal amino acid sequence containing a His-tag was designed and synthesized by Genscript. After gene synthesis, the protein was expressed and purified. In brief, the complete synthetic gene sequence was subcloned into a pET30a vector using the NdeI/HindIII cloning sites. For heterologous expression, Escherichia coli BL21 (DE3) cells were transformed with the recombinant plasmid and a single colony was inoculated into LB medium containing kanamycin (50 mg/L). A pre-starter culture was then inoculated into flasks containing Magic Media (Thermo Fisher, Catalog # K6803) supplemented with kanamycin (50 mg/L) and incubated at 16 °C for 72 h. At an OD600nm = 0.5 - 1.0, 5-aminolevulinic acid (final concentration 0.5 mM) was added. Cells were harvested by centrifugation at 5000 rpm and 4°C and the pellet was lysed using a bacterial cell lysis buffer (B-PER - Themo Fisher, Waltham, MA). After centrifugation, the supernatant was collected, and the protein was purified by one-step purification using HisPur™ Ni-NTA Spin Columns (Thermo Scientific, Catalog # 88226) and standard protocols known in the art. The protein was concentrated using a 10 kDa MW cutoff Amicon Ultra centrifugal filter unit (Millipore Sigma, Catalog# UFC901024), followed by desalting using a disposable PD-10 desalting column (GE Healthcare Life Sciences, Catalog# 17085101) and a buffer containing 50 mM Tris-HCl, 500 mM NaCl, and 10% Glycerol at pH 8.0. […]
(§2) Reactions with alpha-dioxygenases were performed as follows. […] The reaction was incubated for up to 10 minutes at 37°C with 200 rpm agitation and the conversion was monitored using an oxygen sensor. The TON (in s-1) were calculated as the ratio between the initial rate of oxygen consumption (in µM/s) and the concentration of enzyme (in µM). […]

[2] = test system: Streptomyces avermitilis αDOX (SEQ ID NO: 13), fatty acid alpha-dioxygenase, Q82M86, N-terminal His-tag variant SEQ ID NO: 273 (comparative); assay: as above; type: biochemical; details: fatty acid 100 µM, enzyme 6 ppm, 50 mM HEPES pH 9.0, 37°C; initial rate of oxygen consumption / enzyme concentration
Source text: as §1, with “Streptomyces avermitilis αDOX” for “Pisum sativum αDOX”, “NO: 13)” for “NO: 4)”, “as a comparative” for “as an”, “NO: 272)” for “NO: 254)”, “NO: 273),” for “NO: 255),”, “art.” for “art. The protein was concentrated using a 10 kDa MW cutoff Amicon Ultra centrifugal filter unit (Millipore Sigma, Catalog# UFC901024), followed by desalting using a disposable PD-10 desalting column (GE Healthcare Life Sciences, Catalog# 17085101) and a buffer containing 50 mM Tris-HCl, 500 mM NaCl, and 10% Glycerol at pH 8.0.”
as §2

## CCCCCCCC/C=C\CCCCCCCC(=O)O [Oleic Acid]
[1]
  Oleic Acid, TON: 1.40 s⁻¹
[2]
  Oleic Acid, TON: 0.00 s⁻¹

## CCCCCCCCCCCCCCCC(=O)O [Palmitic Acid]
[1]
  Palmitic Acid, TON: 1.92 s⁻¹
[2]
  Palmitic Acid, TON: 0.00 s⁻¹

## CCCCCCCCCCCCCCCCCC(=O)O [Stearic Acid]
[1]
  Stearic Acid, TON: 0.80 s⁻¹
[2]
  Stearic Acid, TON: 0.10 s⁻¹
